Experimental data as given in patent US4510130A, “Promoting animal and plant growth with leupeptin” (Genetic Diagnostics Corporation, priority 1983, dated 1985).

Experiments:
Syrian hamsters = test: Hamster growth (body weight) with daily leupeptin injection; type: in vivo; details: for Hamster Weight: daily injection 0.8 mg leupeptin in 1 ml saline (about 20 mg/Kg per day)
Experimental: 20 Syrian hamsters 3 weeks old and initially weighing an average of 40 grams each were subdivided into two groups. The groups were fed similarly. All animals received a daily injection of 1 ml of isotonic saline solution except that the saline solution administered to the test group had 0.8 mg of leupeptin dissolved therein, corresponding to about 20 mg/Kg per day based on the initial weight of the animals. The animals were weighed weekly and the results obtained were as follows: […]

pea seedlings = test: Pea seedling growth (height) with leupeptin in watering; type: in vivo; details: 10 mg leupeptin in 5 ml water per plant per day to the soil
Experimental: 20 pea seedlings 4 days after planting of seed and each containing an average of 5 leaves were divided into two matched groups. 5 ml of water per plant per day was supplied to the soil in which the control group was growing. The test group received the same 5 ml of water but 10 mg of leupeptin was dissolved therein. The lighting and other growth conditions were the same and the plant heights were measured daily. The first measurement was made on the day that the leupeptin-treated plants reached a height of about 1 cm, a practical minimum measuring height.

CC(=O)N[C@@H](CC(C)C)C(=O)N[C@@H](CC(C)C)C(=O)N[C@H](C=O)CCCNC(=N)N [Leupeptin, leupeptin]
Hamster Weight (Syrian hamsters; Weeks 3): 47 ± 3 grams
Hamster Weight (Syrian hamsters; Weeks 6): 75 ± 5 grams
Hamster Weight (Syrian hamsters; Weeks 9): 87 ± 6 grams
Hamster Weight (Syrian hamsters; Weeks 12): 95 ± 9 grams
Hamster Weight (Syrian hamsters; Weeks 15): 105 ± 8 grams
Hamster Weight (Syrian hamsters; Weeks 18): 110 ± 8 grams
Hamster Weight (Syrian hamsters; Weeks 21): 115 ± 7 grams
Hamster Weight (Syrian hamsters; Weeks 27): 122 ± 10 grams
Hamster Weight (Syrian hamsters; Weeks 32): 130 ± 9 grams
Increase of hamster weight versus control (Syrian hamsters; at all stages of development, about 20 mg/Kg per day by injection): 10-15%
Muscle mass of isolated muscles (Syrian hamsters; muscles isolated from the treated hamsters): increased weight was attributable to a corresponding muscle mass increase
Pea seedling height (pea seedlings; Day 0): 1 ± 0.2 cm
Pea seedling height (pea seedlings; Day 1): 1.5 ± 0.1 cm
Pea seedling height (pea seedlings; Day 4): 3.4 ± 0.2 cm
Pea seedling height (pea seedlings; Day 6): 5.2 ± 0.5 cm
Pea seedling height (pea seedlings; Day 10): 7.9 ± 0.5 cm
Pea seedling height (pea seedlings; Day 12): 9.2 ± 0.6 cm
Pea seedling height (pea seedlings; Day 15): 12.1 ± 0.8 cm
